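Cultured in 96-well plates, cells were exposed to test compound for 48 hours across five concentrations. Here, GI50 denotes the concentration required for 50% inhibition of growth. Definition used: TGI = concentration required for complete inhibition of growth.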
Columns and labels:
P388/ADR leukemia = test: NCI tumour cell line growth inhibition, 48 h
SN12K1 renal = test: NCI tumour cell line growth inhibition, 48 h

Compound | GI50 (P388/ADR leukemia) | TGI (P388/ADR leukemia) | GI50 (SN12K1 renal) | TGI (SN12K1 renal)
O=C(O)c1ccc(C(=O)O)c(C(=O)O)c1.[NH-]C1CCCCC1[NH-].[Pt+2] | 2.15 µM | > 100 µM | 2.71 µM | 19 µM
CCOC(=O)Nc1ccc2c(c1)N(C(=O)CCN(CC)CC)c1ccccc1S2 |  |  |  | 95.3 µM

— PubChem BioAssay (NCI)
